Structures are written as SMILES. Marks after values point to notes of the source that are not given here.

The record followed here is article PMC13055374, “Engineered antimicrobial-derived peptides to manipulate mixed microbial systems” (Microbiology Spectrum, 2026).

The format of data set [1] is physicochemical. The text has this: (§1) We then proceeded to clone the pediocin operon (pedABCD [43]) from P. acidilactici UL5 into the pSIP-P27 vector for heterologous expression in other lactic acid bacteria, viz., Lactiplantibacillus plantarum WCFS1, Lactococcus cremoris MG1363, and the well-established expression host, E. coli MG1655. The pediocin operon imparted anti-listerial activity to the L. plantarum culture supernatant but not to that of L. cremoris or E. coli (Fig. 1A). Based on the degree of bioactivity, we concluded that the level of recombinant biosynthetic pediocin PA-1 accumulated in L. plantarum culture was similar to that observed for P. acidilactici UL5 and was therefore not pursued further. Thus, for subsequent studies, we isolated pediocin PA-1 from P. acidilactici UL5 directly using the cell adsorption-desorption approach (Fig. S2). […] We attempted to further purify the preparation using reverse-phase high performance liquid chromatography with minimal enhancement in purity but a significant loss in yield (Fig. S3). The peptide recovered after cell adsorption-desorption and dialysis was lyophilized for long-term storage to minimize any loss in activity. The peptide using this method was purified 189-fold with a specific activity of 9,434 AU·mg^−1 as measured by agar-well diffusion method (Fig. 1B; Fig. S2A through C).

The subject of data set [2] is L. coryniformis. In kind it is cell-based, Lactobacillus coryniformis. As to conditions: 24 h. Here is the method:
(§2) To determine the potency of the purified pediocin PA-1, we generated kill curves against a range of target bacteria (Fig. 1C). The concentration range tested was 3 pM to 3 μM following 10-fold serial dilutions. […] This is in approximate agreement with the published potency of pediocin PA-1 ([46]). Though the molecular mass of pediocin PA-1 is expected to be 4.5 kDa, we observed the partially purified peptide to migrate with an apparent mass of ~12.5 kDa (Fig. 1B). However, subsequent analysis by LC-MS yielded peaks of multiple m/z with the predominant peak at the expected molecular size of 4.6 kDa (Fig. S4). The purified pediocin PA-1, separated on denaturing but non-reducing SDS-PAGE (since this bacteriocin contains two crucial disulfide bonds), was subjected to agar-overlay assay using L. seeligeri as the indicator organism (Fig. S5).
(§3) The antimicrobial spectrum of pediocin PA-1 was assayed using a kill curve. Cultures grown overnight were resuspended in fresh medium at an OD600 of 0.05. EC50 was determined by incubating cells with varying concentrations of pediocin in a 96-well plate, and growth was measured at 600 nm after 24 h.

The test system of another data set is Bacillus subtilis. Put plainly: Cell-binding assay by flow cytometry. As to conditions: maximum mean fluorescence intensity, Hill fit. Here is the method: (§4) The binding affinity and avidity of pediocin to various gram-positive and gram-negative bacteria were studied using flow cytometry. Late log-phase cells were washed in the sodium phosphate buffer (5 mM, pH 6.0) and resuspended at an OD600 of 10^–3 in sodium-acetate buffer (25 mM, pH 4.0), sodium phosphate buffer (5 mM, pH 6.0), or sodium phosphate buffer (5 mM, pH 7.4) containing 1% bovine serum albumin (BSA) and 100 mM NaCl. Cells were incubated with varying concentrations of the conjugated peptide at 4°C for 30 min. The unbound peptide was removed by centrifugation, and the pellet was resuspended in its respective binding buffer containing 1% BSA. Flow cytometry was performed on an Attune NxT flow cytometer (Life Technologies/ThermoFisher Scientific, Carlsbad, CA). Data (≥10^4 events were recorded) were recorded using a […] (488 nm) at a voltage of 360 V, and gating was performed on an SSC-A versus SSC-H plot to reduce false events.

The subject of a further data set is L. casei. Put plainly: Cell-binding assay by flow cytometry. As to conditions: signal did not saturate. On the set-up: species or system Lacticaseibacillus casei. Here is the method:
as §4

The test system of data set [3] is L. coryniformis. The experiment in a line: Cell-binding assay by flow cytometry. On the set-up: species or system Lactobacillus coryniformis. As to conditions: maximum mean fluorescence intensity, Hill fit. Here is the method: as §4
Another data set concerns L. seeligeri. In kind it is cell-based, Listeria seeligeri. The following applies: 24 h. The method, then:
as §2, §3
Figure S7. Growth inhibition of L. seeligeri by modified and unmodified pediocin PA-1.

For the next data set, the system named is L. cremoris. Put plainly: Cell-binding assay by flow cytometry. The arrangement: species or system Lactococcus cremoris. The following applies: organism printed as L. lactis; signal did not saturate; read-out: Apparent KD. Here is the method: as §4
In another data set the test system is E. coli. Put plainly: Cell-binding assay by flow cytometry. On the set-up: species or system Escherichia coli. The following applies: negative control species; signal did not saturate; read-out: Apparent KD. The method, then:
as §4

A short description of data set [4]: Specific activity of partially purified pediocin by agar-well diffusion method. In kind it is cell-based. The following applies: after cell adsorption-desorption and dialysis.
Text: as §1, with “C). […]” for “C).”

`CC[C@H](C)[C@@H]1NC(=O)[C@@H](NC(=O)[C@@H](NC(=O)[C@@H](NC(=O)[C@H](C)NC(=O)[C@H](CCCCN)NC(=O)CNC(=O)[C@H](Cc2c[nH]c3ccccc23)NC(=O)[C@H](CC(=O)O)NC(=O)[C@@H](NC(=O)[C@H](CO)NC(=O)[C@@H]2CSSC[C@H](NC(=O)[C@@H](NC(=O)[C@@H](NC(=O)CNC(=O)[C@H](CC(N)=O)NC(=O)CNC(=O)[C@H](Cc3ccc(O)cc3)NC(=O)[C@H](Cc3ccc(O)cc3)NC(=O)[C@@H](N)CCCCN)C(C)C)[C@@H](C)O)C(=O)NCC(=O)N[C@@H](CCCCN)C(=O)N[C@@H](Cc3c[nH]cn3)C(=O)N[C@@H](CO)C(=O)N2)C(C)C)[C@@H](C)O)[C@@H](C)O)CSSC[C@@H](C(=O)O)NC(=O)[C@H](CCCCN)NC(=O)[C@H](Cc2c[nH]cn2)NC(=O)[C@H](CC(N)=O)NC(=O)CNC(=O)[C@H](CCC(N)=O)NC(=O)[C@H](Cc2c[nH]cn2)NC(=O)CNC(=O)CNC(=O)[C@H]([C@@H](C)O)NC(=O)[C@H](C)NC(=O)[C@H](Cc2c[nH]c3ccccc23)NC(=O)[C@H](C)NC(=O)[C@H](CCSC)NC(=O)[C@H](C)NC(=O)CNC(=O)[C@H](CC(N)=O)NC(=O)[C@H](CC(N)=O)NC(=O)[C@H]([C@@H](C)CC)NC1=O` [pediocin PA-1]: in data set [1], the “stability of peptide recovered at acidic pH compared with basic pH” value is given as “more stable”. Further, the EC50 in the data set with L. coryniformis [2] is approximately 1 nM; in the data set with L. seeligeri, approximately 13.3 nM. Moreover, the MFImax was 7 ± 1 ×10^3 in the data set on Bacillus subtilis, >2* ×10^3 in the data set on L. casei and 6.3 ± 0.3 ×10^3 in the data set on L. coryniformis [3]. Moreover, the Kd with L. casei (read-out: Apparent KD), in the data set on L. cremoris and in the data set on E. coli was more than 2000 nM in each case. Also, the specific activity in data set [4] is 9,434 AU·mg^−1.
